Source: US12533360B2, “Inhibition of BRD proteins suppresses the phenotype of uterine fibroids” (The University of Chicago, priority 2021, dated 2026)

Assays:
[1] = system: immortalized human leiomyoma cell line (HuLM); experiment: BRD inhibitor screening by MTT cell proliferation assay, HuLM cells; assay type: cell-based; conditions: 24 hours and 48 hours
Protocol: (§1) The immortalized human leiomyoma cell line (HuLM) and immortalized human uterine smooth muscle (UTSM) cells were cultured and maintained in phenol red-free, Dulbecco's Modified Eagle Medium: Nutrient Mixture F-12. The cells were grown at 37° C. and 5% CO2 in an incubator with saturating humidity.
(§2) Cell proliferation was measured using a 3-(4,5-dimethylthiazol-2-yl)-2,5-diphenyltetrazolium bromide (MTT) assay. 2×10^4 UTSM or HuLM cells per well were seeded into 12-well tissue culture plates in the absence or presence of each BRD inhibitor from Table 1 for 24 hours or 48 hours. The inhibitors used in this assay were from the Epigenetic Library at the University of Illinois at Chicago. This assay was performed three times in triplicate.

[2] = system: immortalized human uterine smooth muscle (UTSM) cells; experiment: BRD inhibitor screening by MTT cell proliferation assay, UTSM cells; assay type: cell-based; conditions: 24 hours and 48 hours
Protocol: as §1, §2

UTSM and HuLM cells = experiment: Cell proliferation by trypan blue exclusion assay, HuLM versus UTSM cells; assay type: cell-based, human; conditions: 1-25 μM, 48 hours
Protocol: Cell proliferation was measured using trypan blue exclusion assay. UTSM and HuLM cells (2×10^4 cells per well) were seeded into 12-well tissue culture plates. After 24 hours the cells were cultured in the absence or presence of the BRD inhibitor I-BET762 or (+)-JQ1 at a dose range from 1-25 μM for 48 hours. DMSO was used as a vehicle control. Cells were trypsinized, collected by centrifuge, and resuspended in serum-free medium. Equal volumes of 0.4% trypan blue and cell suspension were mixed and cells were counted using a hemacytometer.

HuLM cells [3] = experiment: RNA-sequencing / transcriptome analysis of treated HuLM cells; assay type: cell-based, human; conditions: 5 μM, 48 hr
Protocol: To determine the mechanism underlying the inhibitory effect of BRD9 inhibition on the UFs, the HuLM cells were treated with BRD9 inhibitor I-BRD9 (5 μM, n=4), TP-472 (5 μM, n=3), and DMSO vehicle control (n=4) for 48 hr. RNA was isolated using Trizol. RNA quality and quantity were assessed using the Agilent bio-analyzer. Strand-specific RNA-SEQ libraries were prepared using a TruSEQ total RNA-SEQ library protocol (Illumina provided). Library quality and quantity were assessed using the Agilent bio-analyzer and libraries were sequenced using an Illumina NovaSEQ6000 (illumine provided reagents and protocols).
A variety of R packages was used for this analysis. All graphics and data wrangling were handled using the tidyverse suite of packages (available from tidyverse.org). All packages used are available from the Comprehensive R Archive Network (CRAN), Bioconductor.org, or GitHub. The reads were mapped to the human reference transcriptome using STAR, version 2.6.1d, as previously described (Dobin et al., Bioinformatics 29 (1):15-21 (2013)). The quality of raw reads, as well as the results of STAR mapping, are generated using fastqc (available from bioinformatics.babraham.ac.uk/projects/fastqc/) and multiqc (available from multiqc.info). Raw reads were mapped to the human reference transcriptome using Salmon, version 1.4.0 (available from combine-lab.github.io/salmon/). After reading mapping with Salmon, Bioconductor (available from bioconductor.org/packages/release/bioc/html/tximport) was used to read Salmon outputs into the R environment. Annotation data from Gencode V34 was used to summarize data from transcript-level to gene-level.

HuLM cells [4] = experiment: Western immunoblot of HuLM cells after BRD inhibition treatment; assay type: cell-based, human; conditions: 0-25 μM, 48 hours
Text: Cells were collected and lysed in RIPA lysis buffer with protease and phosphatase inhibitor cocktail (Thermo Scientific, Waltham, MA, USA), and the protein was quantified using the Bradford method (Bio-Rad Protein Assay kit). The antibodies used were: METTL3 (ab195352, Abcam), YTHDC1 (ab122340, Abcam), YTHDC2 (35440, Cell Signaling), YTHDF2 (ab220163, Abcam), BCL-2 (ab182858, Abcam), FN (26836, Cell Signaling), PCNA (GTX100539, Genetex), BRD2 (5848, cell signaling), BRD3 (ab50818, Abcam), BRD9 (58906, Cell Signaling). The antigen-antibody complex was detected with Trident Femto Western HRP substrate (GeneTex, Irvine, CA, USA). Specific protein bands were visualized using ChemiDoc XRS ? molecular imager (Bio-Rad, Hercules, CA, USA).
HuLM cells were cultured in phenol red-free, 10% fetal bovine serum Dulbecco's Modified Eagle Medium: Nutrient Mixture F-12 at 37° C., 5% CO2 in the absence or presence of the BRD inhibitors I-BRD9 and TP-472 for 48 hours respectively. The concentrations of both inhibitors were used in the range of 0-25 μM. Cells were collected after treatment for Western immunoblot as described above.

SMILES | UF (HuLM) cell proliferation [1] | myometrial (UTSM) cell proliferation [2] | cellular proliferation, UF cells versus myometrium cells (UTSM and HuLM cells) | Hallmark analysis: pathway alteration in response to inhibition of BRD (HuLM cells [3]) | pathways altered (bioinformatic analysis of RNA sequencing) (HuLM cells [3]) | expression of YTHDC1 (HuLM cells [4]) | expression of YTHDC2 (HuLM cells [4]) | expression of YTHDF2 (HuLM cells [4]) | expression of anti-apoptosis protein BCL-2 (HuLM cells [4]) | fibronectin (FN) levels (HuLM cells [4]) | levels of PCNA (marker for cell proliferation) (HuLM cells [4]) | expression of METTL3 (HuLM cells [4])
Cn1cc(CCn2cnc(-c3cnn(C)c3)c2-c2ccc(C#N)cc2)cn1 [BAZ2-ICR] | selectively inhibited UF | not myometrial cell proliferation | – | – | – | – | – | – | – | – | – | –
CCNC(=O)C[C@@H]1N=C(c2ccc(Cl)cc2)c2cc(OC)ccc2-n2c(C)nnc21 [I-BET762] | – | – | reduced cellular proliferation more potently in UF cells than myometrium cells in a dose dependent manner | – | – | – | – | – | – | – | – | –
CCn1cc(-c2cccc(C(F)(F)F)c2)c2sc(C(=N)NC3CCS(=O)(=O)CC3)cc2c1=O [I-BRD9] | selectively inhibited UF | not myometrial cell proliferation | – | E2F, MYC Target, G2M checkpoint, and mitotic spindle pathways | altered the pathways related to biological processes, transcriptional factors | dose-dependent downregulation | dose-dependent downregulation | dose-dependent downregulation | increased the expression of the anti-apoptosis protein BCL-2 | decreased FN levels | decreasing the levels of PCNA | –
Cc1cc(=O)n(C)c2cc(N3C(=O)CC[C@H](NS(=O)(=O)CC(C)C)[C@H]3c3ccc(Cl)cc3)ccc12 [LP99] | selectively inhibited UF | not myometrial cell proliferation | – | – | – | – | – | – | – | – | – | –
CCCS(=O)(=O)c1nc(NC2CC2)cc(-c2ccc3c(ccn3C3CC(C)(C)NC(C)(C)C3)c2)n1 [NVS-CECR2-1] | selectively inhibited UF | not myometrial cell proliferation | – | – | – | – | – | – | – | – | – | –
CC(=O)c1cc(-c2cc(C(=O)NC3CC3)ccc2C)c2ncccn12 [TP-472] | selectively inhibited UF | not myometrial cell proliferation | – | E2F, MYC Target, G2M checkpoint, and mitotic spindle pathways | altered the pathways related to biological processes, transcriptional factors | dose-dependent downregulation | dose-dependent downregulation | – | – | decreased FN levels | decreasing the levels of PCNA | dose-dependent downregulation
